Key:
[1] = on average, subjects with schizophrenic disorders; cited from earlier work
[2] = tested on: clinical effects of ketamine, an NMDA receptor antagonist; conditions: in vivo; cited from earlier work
catatonic features = experiment: Bush-Francis Catatonia Rating Scale (BFCRS) assessment of patients before and after treatment; type: in vivo, human
Text: This assessment tool, in conjunction with clinical observation, can be used to identify the severity of catatonia and track improvements with medication adjustments. Studies discussed herein focused on subjects in both secure and nonsecure residential settings.

CN1CCN(C2=Nc3cc(Cl)ccc3Nc3ccccc32)CC1 [clozapine, 8-chloro-11-(4-methylpiperazin-1-yl)-5H-dibenzo[b,e][1,4]diazepine]
blood levels needed to achieve greater clinical efficacy [1]: ≥ 400 ng/dL
effect on the clinical effects of ketamine [2]: reverse the clinical effects of ketamine

O=C(CCCN1CCC(O)(c2ccc(Cl)cc2)CC1)c1ccc(F)cc1 [haloperidol]
effect on the clinical effects of ketamine [2]: do not impact the effects of ketamine

Nc1nnc(-c2cccc(Cl)c2Cl)c(N)n1 [lamotrigine]
treatment response (catatonic features; 10 out of 14 schizophrenic patients with catatonic features, non-secure settings, antipsychotic, lamotrigine, in some cases a benzodiazepine): marked treatment response
effect of lamotrigine alone on catatonic features (catatonic features; administration of lamotrigine alone): reduces catatonic features
effect on catatonic features at lowest dose (catatonic features; as little as 25 mg per day): meaningful reduction in catatonic features
effect on catatonic features as the amount of lamotrigine was increased (catatonic features; in some instances): complete remission of catatonic features
subjects who responded (catatonic features; of 20 confirmed cases of catatonia in secure residential settings, clozapine monotherapy with subsequent augmentation with lamotrigine): 11
BFCRS score after treatment (catatonic features; one patient, reduced from 14, olanzapine plan later augmented with lamotrigine): 0
follow up BFCRS score (catatonic features; one subject, non-secure setting, original BFCRS score 31, poor responder to clozapine and lorazepam, after augmentation with lamotrigine): 0
BFCRS score after treatment (catatonic features; one subject, secure residential setting, dropped from 17, 3 weeks after starting the combination therapy): 11
response at full dosage (catatonic features; titrated to a full dosage of 200 mg twice per day, paired with an antipsychotic): maximal responses
effect on the clinical effects of ketamine [2]: reverse the clinical effects of ketamine

Cc1cc2c(s1)Nc1ccccc1N=C2N1CCN(C)CC1 [olanzapine, 2-methyl-4-(4-methyl-1-piperazinyl)-10H-thieno[2,3-b][1,5]benzodiazepine]
effect on the clinical effects of ketamine [2]: reverse the clinical effects of ketamine

Cc1nc2n(c(=O)c1CCN1CCC(c3noc4cc(F)ccc34)CC1)CCCC2 [risperidone]
effect on the clinical effects of ketamine [2]: do not impact the effects of ketamine

— US9066949B2, “Compositions and methods for the treatment of catatonia” (priority 2011, dated 2015)
